Patent publication US20140249156A1, “Treatment Of Blood Lipid Abnormalities And Other Conditions” (GlaxoSmithKline LLC, priority 2011, published 2014)

Legend:
male Crl:CD(SD) rats = experiment: Appearance of radiolabeled cholesterol (chylomicrons) in circulation after labeled oral fat challenge with triton block; assay type: in vivo, rat; settings: vs vehicle; for appearance of 3H cholesterol (CPM) in the serum: 3H cholesterol tracer
Source text: A rat model (male Crl:CD(SD) rats) was used for the evaluation of a diverse set of GPR119 agonists. The objective of the studies was to determine if administration of a single dose of an agonist affects the appearance of chylomicrons containing either ^3H- or ^14C-cholesterol in circulation of fasted Crl:CD(SD) rats.
In order to track chylomicron appearance in circulation, radiolabeled cholesterol (with or without radiolabeled retinol) was co-administered with olive oil by oral gavage. Both tracers label the chylomicron core as the cholesterol administered is esterified in the enterocyte, packaged into the chylomicron, and released into the lymphatic system for transport to the systemic circulation. In order to assess appearance and accumulation of the newly formed chylomicrons in circulation, triton was administered by intravenous injection to block the clearance of these particles from circulation.
The rats had been previously instrumented with an implanted jugular catheter to facilitate obtaining multiple blood samples without stress to the animal. Rats were fasted overnight prior to labeled oral fat challenge. All compounds were dosed one hour prior to the challenge test. Treatment groups were randomized by body weight.
All compounds were administered at 5 mL/kg by the oral route as suspensions in hydroxypropylmethylcellulose (0.5%) which contained 0.1% Tween 80. Triton (250 mg/kg) was administered by intravenous injection immediately prior to an oral gavage of the tracer mixed with olive oil. Total volume of olive oil administered per rat was 2 mL, which contained (per 2 mL olive oil) either:
5-10 uCi ^14C-cholesterol (alone or in combination with 80 uCi ^3H-retinol)
5-20 uCi ^3H-cholesterol.
Blood samples were taken at the following time points: 0.25, 0.5, 0.75, 1, 2, 3, 4, 5 and 6 hours post olive oil gavage. Samples were spun at 8,000×g for 8 minutes at room temperature and 100 uL aliquots of serum counted for ^3H or ^14C.

humans = settings: cited from earlier work
[1] = single oral dose 30 mg/kg one hour before olive oil containing 14C cholesterol
[2] = previously discovered, patients

CC(C)c1noc(N2CCC(COc3ccc(-c4ccc(S(C)(=O)=O)cc4)nc3)CC2)n1 [Compound A, 5-[({1-[3-(1-methylethyl)-1,2,4-oxadiazol-5-yl]-4-piperidinyl}methyl)oxy]-2-[4-(methylsulfonyl)phenyl]pyridine]
appearance of 3H cholesterol (CPM) in the serum (male Crl:CD(SD) rats; single oral dose 3 mg/kg): decreased
appearance of 14C labeled chylomicrons in circulation (male Crl:CD(SD) rats; single oral dose 3 mg/kg, olive oil containing 14C cholesterol): significantly reduced
appearance of 3H cholesterol (CPM) in the serum (male Crl:CD(SD) rats; single oral dose 10 mg/kg): decreased
appearance of 14C labeled chylomicrons in circulation (male Crl:CD(SD) rats; single oral dose 10 mg/kg, olive oil containing 14C cholesterol): significantly reduced
appearance of 14C labeled chylomicrons in circulation (male Crl:CD(SD) rats; [1]): significantly reduced
fasting ApoB/B100 (humans; humans): reducing
fasting ApoB/B100:ApoA1 ratio (humans; humans): reducing
fasting ApoE (humans; humans): reducing
fasting HDL cholesterol (humans; humans): increasing
fasting LDL cholesterol (humans; humans): reduced
fasting LDL cholesterol:HDL cholesterol ratio (humans; humans): reducing
fasting non-HDL cholesterol (humans; humans): reducing
fasting plasma alanine aminotransferase (humans; humans): reducing
fasting plasma uric acid (humans; humans): reducing
fasting total cholesterol (humans; humans): reducing
fasting total cholesterol:HDL cholesterol ratio (humans; humans): reducing
fasting triglycerides (humans; humans): reducing
prandial triglycerides (humans; humans): reducing
rise in serum triglycerides that occurs following meals (humans; patients treated with Compound A): significantly blunted
HDL cholesterol (humans; [2]): raises
LDL cholesterol (humans; [2]): lowers
total cholesterol (humans; [2]): lowers

CC(C)c1noc(N2CCC([C@H](C)Oc3cnc(-c4ccc(S(C)(=O)=O)cc4)cn3)CC2)n1 [Compound B, 2-[((1S)-1-{1-[3-(1-methylethyl)-1,2,4-oxadiazol-5-yl]-4-piperidinyl}ethyl)oxy]-5-[4-(methylsulfonyl)phenyl]pyrazine]
appearance of 14C labeled chylomicrons in circulation (male Crl:CD(SD) rats; [1]): significantly reduced
appearance of 3H cholesterol (CPM) in the serum (male Crl:CD(SD) rats; single oral dose 30 mg/kg): decreased

Cc1ncccc1Oc1ncnc(OC2CCN(C(=O)OC(C)C)CC2)c1C.Cl [Compound G, 1-methylethyl 4-({5-methyl-6-[(2-methyl-3-pyridinyl)oxy]-4-pyrimidinyl}oxy)-1-piperidinecarboxylate hydrochloride]
appearance of 3H cholesterol (CPM) in the serum (male Crl:CD(SD) rats; single oral dose 30 mg/kg): significant reduced

Cc1cc(S(C)(=O)=O)ccc1N1CCc2c(OC3CCN(C(=O)OC(C)C)CC3)ncnc21 [Compound H, 1-methylethyl 4-({7-[2-methyl-4-(methylsulfonyl)phenyl]-6,7-dihydro-5H-pyrrolo[2,3-d]pyrimidin-4-yl}oxy)-1-piperidinecarboxylate]
appearance of 3H cholesterol (CPM) in the serum (male Crl:CD(SD) rats; single oral dose 30 mg/kg): significant reduced

CC(C)n1nnc(N2CCC([C@H](C)Oc3cnc(-c4ccc(S(C)(=O)=O)cc4)cn3)CC2)n1 [Compound I, 2-[((1S)-1-{1-[2-(1-methylethyl)-2H-tetrazol-5-yl]-4-piperidinyl}ethyl)oxy]-5-[4-(methylsulfonyl)phenyl]pyrazine]
appearance of 3H cholesterol (CPM) in the serum (male Crl:CD(SD) rats; single oral dose 30 mg/kg): significant reduced

C[C@@H](OC1CCN(C(=O)OC(C)(C)C)CC1)c1nc(-c2ccc(S(C)(=O)=O)c(F)c2)no1 [Compound J, 1,1-dimethylethyl 4-[((1R)-1-{3-[3-fluoro-4-(methylsulfonyl)phenyl]-1,2,4-oxadiazol-5-yl}ethyl)oxy]-1-piperidinecarboxylate]
appearance of 3H cholesterol (CPM) in the serum (male Crl:CD(SD) rats; single oral dose 30 mg/kg): significant reduced
